Data as given in patent US5756120A, “Antibiotic formulation and use for drug resistant infections” (NeXstar Pharmaceuticals, Inc., priority 1995, dated 1998).
“And” between values parts separate entries of the source, which are not always exact repeats. Equal entries are not always repeated. “Also recorded” adds a separate entry of the source. Where two headings read alike, the source gives them in different places.

System: M. tuberculosis drug resistant strain Vertulla
Format: cell-based
Conditions: for CFU (1 × 10^3): duplicate values; for inhibition or killing of drug resistant M. tuberculosis: concentrations tested (4, 8 and 16 μg/ml)

## NCC[C@H](O)C(=O)N[C@@H]1C[C@H](N)[C@@H](O[C@H]2O[C@H](CN)[C@@H](O)[C@H](O)[C@H]2O)[C@H](O)[C@H]1O[C@H]1O[C@H](CO)[C@@H](O)[C@H](N)[C@H]1O [amikacin]
4 μg/ml, day 4
  Avg. log CFU: 3.9 log CFU
  CFU (1 × 10^3): 9.3 1 × 10^3 CFU and 8.0 1 × 10^3 CFU
4 μg/ml, day 7
  Avg. log CFU: 5.2 log CFU
8 μg/ml, day 4
  Avg. log CFU: 3.7 log CFU
  CFU (1 × 10^3): 5 1 × 10^3 CFU and 4 1 × 10^3 CFU
8 μg/ml, day 7
  Avg. log CFU: 3.7 log CFU
  CFU (1 × 10^3): 4.5 1 × 10^3 CFU and 6.2 1 × 10^3 CFU
16 μg/ml, day 4
  Avg. log CFU: 3.7 log CFU
  CFU (1 × 10^3): 5 1 × 10^3 CFU and 5.4 1 × 10^3 CFU
16 μg/ml, day 7
  Avg. log CFU: 3.6 log CFU
  CFU (1 × 10^3): 3.7 1 × 10^3 CFU and 4.1 1 × 10^3 CFU
Listed as free amikacin
  inhibition or killing of drug resistant M. tuberculosis: at the most, inhibition; also recorded: only inhibit the growth of the infection without killing at the concentrations tested
Listed as free drug
  inhibition or killing of drug resistant M. tuberculosis: only inhibits the growth of the bacteria
